Patent US12065438B2, “Substituted tricyclic compounds as indoleamine 2,3-dioxygenase inhibitors” (Merck Sharp & Dohme LLC, priority 2019, dated 2024)
pIC50: −log10 of the molar value.

Target: IDO1 (Homo sapiens, UniProt P14902)
Test: IDO1 Cellular Assay in HeLa Cells Stimulated with IFNγ
Format: cell-based
Design: endogenous in cells; host or cells: HeLa cells stimulated with IFNγ
Conditions: HeLa cells stimulated with IFNγ 100 ng/mL, 300 uM L-tryptophan, about 48 hours, fluorescence readout; read-out: IDO1 HELA Cell Assay, IC50
Protocol: Biological Assays IDO1 Cellular Assay in HeLa Cells Stimulated with IFNγ HeLa cells were cultured in complete HeLa culture medium (90% EMEM, 10% heat-inactivated fetal bovine serum) and expanded to about 1×10^9 cells. The cells were then collected and frozen down at 1×10^7 cells/vial in 1 mL frozen medium (90% complete HeLa culture medium, 10% DMSO). Compounds to be tested were serially diluted in ten 3-fold steps in DMSO starting from 10 mM DMSO stocks in Echo low volume plate(s). Compound dilutions or DMSO alone were then dispensed from the dilution plate(s) into Greiner black 384-well assay plate(s) (catalog #781086, 50 nL/well) using an Echo 550 acoustic liquid handler (Labcyte). Frozen HeLa cells were thawed and transferred into HeLa assay medium (99% complete HeLa culture medium, 1% Pen/Strep) with 20 mL medium/vial of cells. The cells were spun down at 250 g in a table top centrifuge for 5 min and suspended in same volume of HeLa assay medium. The cells were then counted and adjusted to a density of 2×10^5 cells/mL in HeLa assay medium. Sterile L-tryptophan were added to the cells with final concentration of 300 uM L-tryptophan. A small aliquot (2 mL/plate) of HeLa cells were set aside and were not treated with IFNγ, to serve as the Max-E control. The rest of HeLa cells were added with sterile IFNγ (Cat #285-IF, R & D systems) with a final concentration of 100 ng/mL. HeLa cells with and without IFNγ were dispensed to the respective wells of 384-well assay plates containing the compounds. The plates were incubated for about 48 hours at a 37° C., 5% CO2 incubator. Afterwards, 12 μL of 0.5 M methyl isonipecotate in dimethyl sulfoxide were added into each well and the plates were sealed and incubated at 37° C. without CO2 overnight. The plates were centrifuged for 1 min at 200×g. The resulting fluorescence was measured in a Spectramax plate reader (Molecular Devices) with a 400 nm excitation filter and a 510 nm emission filter. The fluorescence intensity of each well was corrected for the background observed in wells with non-IFNγ-treated cells and was expressed as a fraction of the intensity observed in wells of IFNγ-treated cells and DMSO only. Potencies were calculated by […] least squares fit to the four parameter logistic IC50 equation.

IDO1, sequence (P14902 whole entry): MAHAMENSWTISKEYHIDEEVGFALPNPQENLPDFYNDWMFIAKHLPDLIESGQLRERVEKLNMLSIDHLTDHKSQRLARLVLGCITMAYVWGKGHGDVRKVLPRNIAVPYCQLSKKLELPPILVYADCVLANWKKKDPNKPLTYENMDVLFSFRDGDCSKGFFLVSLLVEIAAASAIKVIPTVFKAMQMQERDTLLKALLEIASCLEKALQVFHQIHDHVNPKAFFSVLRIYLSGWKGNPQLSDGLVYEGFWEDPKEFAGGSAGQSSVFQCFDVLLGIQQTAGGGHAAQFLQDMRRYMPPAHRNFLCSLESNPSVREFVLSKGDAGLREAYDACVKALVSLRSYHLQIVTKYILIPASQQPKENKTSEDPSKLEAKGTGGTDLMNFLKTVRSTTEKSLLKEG

| Compound | pIC50 |
| --- | --- |
| Cc1nccc(N2CC3CC3c3nc(C(C)(C)NC(=O)c4ccc(F)cc4)ccc32)n1 (racemic) [Example 29, 4-fluoro-N-(2-(5-(2-methylpyrimidin-4-yl)-6,6a,7,7a-tetrahydro-5H-cyclopropa[c][1,5]naphthyridin-2-yl)propan-2-yl)benzamide] | 7.05 |
| Cc1nccc(N2C[C@@H]3C[C@@H]3c3cc(C4(NC(=O)c5ccc(F)cc5)CC4)ccc32)n1 (single isomer, unassigned) [Example 2] | 8.82 |
| O=C(C1CC1)N1CC2CC2c2cc(C3(C(=O)Nc4ccc(F)cc4)CCC3)ccc21 (single isomer, unassigned) [Example 3, 1-(3-(cyclopropanecarbonyl)-1a,2,3,7b-tetrahydro-1H-cyclopropa[c]quinolin-6-yl)-N-(4-fluorophenyl)cyclobutanecarboxamide] | 7.36 |
| Cc1nccc(N2c3ccc(C4(NC(=O)c5ccc(F)cc5)CC4)cc3C3CC32)n1 (single isomer, unassigned) [Example 8, 4-fluoro-N-(1-(2-(2-methylpyrimidin-4-yl)-1,1a,2,6b-tetrahydrocyclopropa[b]indol-5-yl)cyclopropyl)benzamide] | 8.54 |
| Cc1nccc(N2c3ccc(C4(NC(=O)c5ccc(F)cc5)CC4)cc3C3CC32)n1 (single isomer, unassigned) [Example 9, 4-fluoro-N-(1-(2-(2-methylpyrimidin-4-yl)-1,1a,2,6b-tetrahydrocyclopropa[b]indol-5-yl)cyclopropyl)benzamide] | 8.09 |
| Cc1nccc(N2C[C@@H]3C[C@@H]3c3nc(C4(NC(=O)c5ccc(F)cc5)CC4)ccc32)n1 (stereo in doubt) [Example 12, 4-fluoro-N-(1-(5-(2-methylpyrimidin-4-yl)-6,6a,7,7a-tetrahydro-5H-cyclopropa[c][1,5]naphthyridin-2-yl)cyclopropyl)benzamide] | 8.72 |
| Cc1nccc(N2C[C@H]3C[C@H]3c3nc(C4(NC(=O)c5ccc(F)cc5)CC4)ccc32)n1 (stereo in doubt) [Example 13, 4-fluoro-N-(1-(5-(2-methylpyrimidin-4-yl)-6,6a,7,7a-tetrahydro-5H-cyclopropa[c][1,5]naphthyridin-2-yl)cyclopropyl)benzamide] | 8.97 |
| Cc1nccc(N2CC3CC3c3cc(C4(NC(=O)c5ccc(F)cc5)CC4)ccc32)n1 [Example 1, 4-fluoro-N-(1-((1aR,7bS)-3-(2-methylpyrimidin-4-yl)-1a,2,3,7b-tetrahydro-1H-cyclopropa[c]quinolin-6-yl)cyclopropyl)benzamide] | 8.78 |

Other lines, results leading:

| pIC50 | Compound |
| --- | --- |
| 7.09 | 4-fluoro-N-(2-((6aS,7aR)-5-(2-methylpyrimidin-4-yl)-6,6a,7,7a-tetrahydro-5H-cyclopropa[c][1,5]naphthyridin-2-yl)propan-2-yl)benzamide [Example 31] |
| 8.17 | CCC(NC(=O)c1ccc(F)cc1)c1ccc2c(n1)C1CC1CN2c1ccnc(C)n1 (racemic) [Example 38, 4-fluoro-N-(1-(5-(2-methyl-pyrimidin-4-yl)-6,6a,7,7a-tetrahydro-5H-cyclopropa[c]-[1,5]naphthyridin-2-yl)propyl)-benzamide] |
| 7.28 | Cc1nccc(N2CC3CC3c3nc(C4(NC(=O)c5ccc(F)cc5)CC4C)ccc32)n1 (racemic) [Example 47, 4-fluoro-N-(2-methyl-1-(5-(2-methylpyrimidin-4-yl)-6,6a, 7,7a-tetrahydro-5H-cyclopropa[c][1, 5]naphthyridin-2-yl)cyclopropyl)benzamide] |
| 6.66 | CC(C)(NC(=O)c1ccc(F)cc1)c1ccc2c(n1)[C@H]1C[C@H]1CN2C(=O)OC1CC1 (single isomer, unassigned) [Example 34] |
| 6.68 | CCC(NC(=O)c1ccc(F)cc1)c1ccc2c(n1)C1CC1CN2C(=O)OC1CC1 (single isomer, unassigned) [Example 36, cyclopropyl 2-(1-(4-fluorobenzamido)propyl)-6,6a,7,7a-tetrahydro-5H-cyclopropa[c][1,5]naphthyridine-5-carboxylate] |
